# Activity calls are given as the source filed them. The calls are words filed in the database; no cut-off is given here.
# Biological target: T1, Prostaglandin G/H synthase 1 (Ovis aries) (UniProt P05979)
# T1 sequence (whole entry): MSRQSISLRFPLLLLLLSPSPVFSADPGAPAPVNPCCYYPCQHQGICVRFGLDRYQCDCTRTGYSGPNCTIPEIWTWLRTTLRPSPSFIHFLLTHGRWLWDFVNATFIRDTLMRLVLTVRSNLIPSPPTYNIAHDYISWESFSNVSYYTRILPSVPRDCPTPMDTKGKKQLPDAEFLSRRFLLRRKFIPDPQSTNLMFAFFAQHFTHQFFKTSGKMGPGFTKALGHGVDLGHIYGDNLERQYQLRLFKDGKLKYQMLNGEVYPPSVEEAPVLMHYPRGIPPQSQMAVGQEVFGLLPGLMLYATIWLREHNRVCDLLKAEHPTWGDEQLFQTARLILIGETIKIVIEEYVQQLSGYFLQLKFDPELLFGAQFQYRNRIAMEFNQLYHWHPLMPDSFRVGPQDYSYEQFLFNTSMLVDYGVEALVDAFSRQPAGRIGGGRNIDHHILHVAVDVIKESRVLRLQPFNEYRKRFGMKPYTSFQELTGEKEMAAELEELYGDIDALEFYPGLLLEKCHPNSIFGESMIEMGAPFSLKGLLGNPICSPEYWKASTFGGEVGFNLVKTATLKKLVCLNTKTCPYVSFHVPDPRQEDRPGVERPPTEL
# Conditions: at 50 µM
# Description: Inhibition of ovine COX1 at 50 uM by peroxidase activity-based colorimetric assay
row,SMILES,inhibition
1,Clc1ccc(-c2noc(CBr)c2-c2ccccc2)o1,35%
2,COc1ccccc1-c1noc(C)c1-c1ccccc1,61%
3,COc1ccccc1-c1noc(C(F)(F)F)c1-c1ccccc1,39%
4,Cc1onc(-c2ccc(Cl)o2)c1-c1ccc([N+](=O)[O-])cc1,inactive
5,O=C(O)Cc1onc(-c2ccc(Cl)o2)c1-c1ccccc1,32%
6,COC(=O)Cc1onc(-c2ccc(Cl)o2)c1-c1ccccc1,inactive
7,Cc1onc(-c2ccc(Cl)o2)c1-c1ccc(N)cc1,78%
8,CCCc1onc(-c2ccc(Cl)o2)c1-c1ccccc1,17%
9,N#CCc1onc(-c2ccc(Cl)o2)c1-c1ccccc1,12%

# Further lines, results first:
row,inhibition,SMILES
1,94%,Nc1onc(-c2ccc(Cl)o2)c1-c1ccccc1
2,25%,CC(=O)N(C(C)=O)c1onc(-c2ccc(Cl)o2)c1-c1ccccc1
3,69%,Cc1onc(-c2ccc(Cl)o2)c1-c1ccccc1
4,inactive,CN(C)c1onc(-c2ccc(Cl)o2)c1-c1ccccc1
5,55%,CCc1onc(-c2ccc(Cl)o2)c1-c1ccccc1

# Biological target: Prostaglandin G/H synthase 1 (Homo sapiens, UniProt P23219)
# Sequence (P23219 whole entry): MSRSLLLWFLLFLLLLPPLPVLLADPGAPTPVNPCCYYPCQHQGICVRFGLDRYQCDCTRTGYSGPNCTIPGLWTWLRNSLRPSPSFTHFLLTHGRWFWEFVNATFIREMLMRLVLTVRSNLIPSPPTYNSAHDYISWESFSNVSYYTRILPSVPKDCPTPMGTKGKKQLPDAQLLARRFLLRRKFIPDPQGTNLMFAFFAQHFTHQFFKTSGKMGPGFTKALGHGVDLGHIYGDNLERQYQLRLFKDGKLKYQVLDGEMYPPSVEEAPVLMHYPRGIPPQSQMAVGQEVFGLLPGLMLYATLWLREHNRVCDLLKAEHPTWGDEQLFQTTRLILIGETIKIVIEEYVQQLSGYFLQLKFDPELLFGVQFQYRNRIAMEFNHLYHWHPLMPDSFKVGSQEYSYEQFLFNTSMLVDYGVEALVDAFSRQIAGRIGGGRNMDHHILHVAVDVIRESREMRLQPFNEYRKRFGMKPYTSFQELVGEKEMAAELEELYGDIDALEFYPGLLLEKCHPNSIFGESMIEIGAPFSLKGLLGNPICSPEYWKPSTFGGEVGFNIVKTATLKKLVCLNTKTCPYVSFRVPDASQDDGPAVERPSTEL
# Assay: Inhibition of COX1 in human OVCAR3 cells using [14C]arachidonic acid as substrate preincubated for 30 mins before substrate addition by radioactivity scanning technique
# Format: cell-based, OVCAR-3
# Conditions: not given
row,IC50 [nM],SMILES
1,580,Nc1onc(-c2ccc(Cl)o2)c1-c1ccccc1

# — ChEMBL document CHEMBL3112448, “Selective COX-1 inhibition as a target of theranostic novel diarylisoxazoles” (Eur J Med Chem, 2014)
